Blank lines part the entries; values can stand above or below the compound they belong to.
How the values were obtained:
ATAD5 = assay: ATAD5-luc genotoxicity assay (agonist mode); assay type: cell-based; settings: Homo sapiens, positive control titration on every plate, mean, n=408
Description: (§1) All cell-based assays were multiplexed with a cell viability assay in the same assay well. Although bla-based assays were multiplexed with a luminescence-based cell viability assay (CellTiter-Glo viability assay, Promega), luc-based assays were multiplexed with a fluorescence-based cell viability assay (Cell Titer-Fluor viability assay, Promega). […] A number of stress response pathway assays, including ATAD5-luc[33], a genotoxicity assay, p53-bla, antioxidant responsive element (ARE-bla)[34] and heat-shock factor response element (HSE-bla) assays, were screened in agonist mode.
(§2) In primary screening, all compounds were tested as three independent runs, with each of the three instances of a compound sample residing in a different location on a different compound plate across replicates. […] Analysis of compound concentration–response data was performed as previously described[5]. […] Compound reproducibility was assessed by calculating the reproducibility of the curve ranks of each compound generated from the triplicate runs[9].

[1] = tested on: heat-shock factor response element; assay: HSE-bla qHTS assay (agonist mode); assay type: cell-based, human; settings: positive control titration on every plate, mean, n=408
Description: as §1, §2

Mitochondria toxicity = settings: read-out: Control AC50, positive control titration on every plate, mean, n=408
[2] = target: T1, peroxisome proliferator-activated receptor gamma (Homo sapiens, UniProt P37231); assay: PPAR-gamma-bla antagonist mode qHTS assay; assay type: cell-based; settings: positive control titration on every plate, mean, n=408
T1 sequence (P37231 238-505 limits assumed): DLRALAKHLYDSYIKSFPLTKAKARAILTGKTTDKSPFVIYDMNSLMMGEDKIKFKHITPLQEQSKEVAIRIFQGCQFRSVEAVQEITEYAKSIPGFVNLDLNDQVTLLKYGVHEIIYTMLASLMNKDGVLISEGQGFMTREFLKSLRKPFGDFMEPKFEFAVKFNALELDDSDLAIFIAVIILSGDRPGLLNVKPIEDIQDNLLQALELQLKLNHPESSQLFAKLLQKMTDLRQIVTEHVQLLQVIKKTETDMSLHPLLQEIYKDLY
Description: (§3) The assays were run in different modes (agonist versus antagonist) and/or formats (full length versus partial receptor) as detailed below, totaling 30 assays. […] All cell-based assays were multiplexed with a cell viability assay in the same assay well. Although bla-based assays were multiplexed with a luminescence-based cell viability assay (CellTiter-Glo viability assay, Promega), luc-based assays were multiplexed with a fluorescence-based cell viability assay (Cell Titer-Fluor viability assay, Promega). […]
(§4) In primary screening, all compounds were tested as three independent runs, with each of the three instances of a compound sample residing in a different location on a different compound plate across replicates. […] Briefly, raw plate reads for each titration point were first normalized relative to the positive control compound (agonist mode: 100%; antagonist mode: 0%) and dimethylsulphoxide (DMSO)-only wells (agonist mode: 0%; antagonist mode: -100%) as follows: % Activity=((Vcompound – VDMSO)/(Vpos – VDMSO)) × 100, where Vcompound denotes the compound well values, Vpos denotes the median value of the positive control wells and VDMSO denotes the median values of the DMSO-only wells, and then corrected by applying an in-house pattern correction algorithm using compound-free control plates (that is,, DMSO-only plates) at the beginning and end of the compound plate stack. […]

[3] = target: T2, peroxisome proliferator-activated receptor delta (Homo sapiens, UniProt Q03181); assay: PPAR-delta-bla agonist mode qHTS assay; assay type: cell-based; settings: positive control titration on every plate, mean, n=408
T2 sequence (Q03181 211-441 limits assumed): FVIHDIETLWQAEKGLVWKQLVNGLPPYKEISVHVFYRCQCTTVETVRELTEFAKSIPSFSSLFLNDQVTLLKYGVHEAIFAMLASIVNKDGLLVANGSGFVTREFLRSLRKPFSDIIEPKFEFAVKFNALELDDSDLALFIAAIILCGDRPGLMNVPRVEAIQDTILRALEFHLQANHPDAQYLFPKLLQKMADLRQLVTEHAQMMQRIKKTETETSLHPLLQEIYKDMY
Description: as §3, §4

[4] = target: T2, peroxisome proliferator-activated receptor delta; assay: PPAR-delta-bla antagonist mode qHTS assay; assay type: cell-based; settings: positive control titration on every plate, mean, n=408
Description: as §3, §4

p53 = assay: P53-bla qHTS assay (agonist mode); assay type: cell-based; settings: Homo sapiens, positive control titration on every plate, mean, n=408
Description: as §3, §4

[5] = target: aryl hydrocarbon receptor (Homo sapiens, UniProt P35869); assay: AhR-luc qHTS assay; assay type: cell-based; settings: positive control titration on every plate, mean, n=408
aryl hydrocarbon receptor, sequence (P35869 11-848): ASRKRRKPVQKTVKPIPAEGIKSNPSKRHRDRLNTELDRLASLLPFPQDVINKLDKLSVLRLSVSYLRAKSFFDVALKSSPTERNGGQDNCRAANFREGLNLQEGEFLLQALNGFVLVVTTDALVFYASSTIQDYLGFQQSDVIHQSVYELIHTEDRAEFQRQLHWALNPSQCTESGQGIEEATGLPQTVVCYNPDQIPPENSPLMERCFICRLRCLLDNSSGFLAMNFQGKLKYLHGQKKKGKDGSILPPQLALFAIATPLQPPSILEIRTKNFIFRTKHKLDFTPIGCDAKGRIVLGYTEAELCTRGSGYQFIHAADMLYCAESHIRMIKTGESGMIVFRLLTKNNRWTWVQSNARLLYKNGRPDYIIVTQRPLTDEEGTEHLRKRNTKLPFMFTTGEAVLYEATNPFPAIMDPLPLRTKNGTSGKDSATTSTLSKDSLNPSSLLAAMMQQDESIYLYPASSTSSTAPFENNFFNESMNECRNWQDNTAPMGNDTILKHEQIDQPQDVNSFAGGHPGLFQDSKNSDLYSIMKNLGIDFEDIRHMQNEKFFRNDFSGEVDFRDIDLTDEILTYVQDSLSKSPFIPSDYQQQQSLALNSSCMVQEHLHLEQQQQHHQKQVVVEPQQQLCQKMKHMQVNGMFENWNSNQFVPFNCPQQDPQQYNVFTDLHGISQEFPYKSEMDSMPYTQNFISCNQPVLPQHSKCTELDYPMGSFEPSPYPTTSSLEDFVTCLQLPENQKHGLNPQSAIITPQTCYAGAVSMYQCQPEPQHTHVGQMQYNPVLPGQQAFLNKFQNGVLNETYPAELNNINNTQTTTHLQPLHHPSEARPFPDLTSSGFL
Description: as §1, §2

DT40 Rad54/Ku70 cells = assay: DT40 Rad54/Ku70 mutant cell viability assay; assay type: cell-based, chicken; settings: positive control titration on every plate, mean, n=408
DT40 WT cells = assay: DT40 WT cell viability assay; assay type: cell-based, chicken; settings: positive control titration on every plate, mean, n=408
DT40 Rev3 cells = assay: DT40 Rev3 cell viability assay; assay type: cell-based, chicken; settings: positive control titration on every plate, mean, n=408
[6] = tested on: antioxidant responsive element; assay: ARE-bla qHTS assay (agonist mode); assay type: cell-based; settings: Homo sapiens, positive control titration on every plate, mean, n=408
Description: as §3, §4

SMILES: O=c1[nH]c(=O)n([C@@H]2O[C@H](CO)[C@@H](O)[C@H]2O)cc1F [5-Fluorouridine]
AC50 (ATAD5): 2120 nM

SMILES: C=CCNC1=C2C[C@@H](C)C[C@H](OC)[C@H](O)[C@@H](C)/C=C(\C)[C@H](OC(N)=O)[C@@H](OC)/C=C\C=C(/C)C(=O)NC(=CC1=O)C2=O [17-AAG]
AC50 [1]: 45.3 nM

SMILES: N#CC(C#N)=NNc1ccc(OC(F)(F)F)cc1 [FCCP]
AC50 (Mitochondria toxicity): 96.2 nM

AC50 [2]: 2.47 nM
SMILES: O=C(Nc1ccccc1)c1cc([N+](=O)[O-])ccc1Cl [GW9662]

AC50 [3]: 36.4 nM
SMILES: CCCc1c(OCCCOc2ccc(OCC(=O)O)cc2)ccc(C(C)=O)c1O [L-165,041]

AC50 [4]: 38.5 µM
SMILES: CC(C)c1ccc2c(c1)c(SC(C)(C)C)c(CC(C)(C)C(=O)O)n2Cc1ccc(Cl)cc1 [MK886]

SMILES: CO[C@@]12[C@H](COC(N)=O)C3=C(C(=O)C(C)=C(N)C3=O)N1C[C@@H]1N[C@@H]12 [Mitomycin C]
AC50 (p53): 1530 nM

AC50 [5]: 49.5 µM
SMILES: COc1ccc2[nH]c([S+]([O-])Cc3ncc(C)c(OC)c3C)nc2c1 (stereo not drawn) [Omeprazole]

SMILES: CCCCCCCC[N+](CCCCCCCC)(CCCCCCCC)CCCCCCCC [Tetra-octyl ammonium bromide]
AC50 (DT40 Rad54/Ku70 cells): 416 nM | AC50 (DT40 WT cells): 594 nM | AC50 (DT40 Rev3 cells): 440 nM

SMILES: O=c1cc(-c2ccccc2)oc2ccc3ccccc3c12 [β-Naphthoflavone]
AC50 [6]: 1950 nM

Reference: PMC4777217, “Modelling the Tox21 10 K chemical profiles for in vivo toxicity prediction and mechanism characterization” (Nature Communications, 2016)
